Read-outs that look alike come from different tables or passages of the source.
Columns and labels:
[1] = test system: pain induced by phenylquinone; experiment: phenylquinone writhing test (oral anti-PQW), analgesic activity; assay type: in vivo, female white mice; conditions: for ED50: Mus musculus, po, mice, oral, phenylquinone writhing, read-out: EFFECT ED50 Oral Anti-PQW
Procedure: A standard procedure for detecting and comparing the analgesic activity of compounds in this series for which there is good correlation with human efficacy is the standard phenylquinone writhing test modified from Siegmund, et al., Proc. Soc. Exp. Biol. Med., 95, 729 (1957). A test compound suspended in 1% methocel® was given orally to fasted (17-21 hours) female white mice, 5-20 animals per double blind test. Aqueous (0.01% phenyl-p-benzoquinone) phenylquinone was injected intraperitoneally at 24 minutes later using 0.20 ml per mouse. […] The effective analgesic dose for 50% of the mice (ED50) was calculated by the moving average method of Thompson, W. R., Bact. Rev., 11, 115-145 (1947).

[2] = test system: Straub tail; experiment: Straub tail reaction (oral), narcotic agonist effect; assay type: in vivo, CF1 S female mice; conditions: Mus musculus, mice
Procedure: Narcotic analgesics produce in mice an erection and arching of the tail (90° or more) which is referable to spinal cord stimulation. This Straub tail reaction is not produced by other analgesics, including the narcotic antagonists.
The method used was modified from Shemano, I., and Wendel, H., Tox. Appl. Pharm., 6, 334-9 (1964). CF1 S female mice (18-21 g), 10-20 mice per dose, were intubated with log scaled doses of analgesic in 1% aqueous methylcellulose. A positive Straub tail response was recorded if a tail was erected 90° or more for 5 seconds at any time within 24 minutes after dosing. A quantal Straub tail ED50 was calculated by the moving average method [Thompson, W. R., Bact. Rev., 11, 115-145 (1947)].

[3] = test system: induction of Straub tail in mice by a highly addicting agonist such as morphine; experiment: anti-Straub tail test, antagonism of morphine-induced Straub tail (narcotic antagonism); assay type: in vivo, Female CF1 S mice; conditions: for ED50: Mus musculus; for ED50 / EFFECT ED50 subcutaneous(s.c.) Anti-Straub Tail: mice, vs morphine sulfate 30 mg/kg i.p.
[4] = ip, i.p., read-out: EFFECT ED50 Intraperitoneal(i.p.) Anti-Straub Tail
[5] = sc, s.c., read-out: EFFECT ED50 subcutaneous(s.c.) Anti-Straub Tail

SMILES	ED50 [1]	ED50 [2]	ED50 [3, 5]	also measured
CN1CC[C@]23c4ccccc4O[C@H]2CCC[C@H]3C1 (relative stereo) [Example 1, 3-Methyl-2,3,4,4aα,5,6,7,7aα,octahydro-1H-benzo[4,5]furo[3,2-e]isoquinoline]	14 mg/kg	> 81 mg/kg		
COc1cccc2c1O[C@H]1CCC[C@H]3CN(C)CC[C@@]231 (relative stereo) [Example 2, 9-Methoxy-3-methyl-2,3,4,4aα-5,6,7,7aα-octahydro-1H-benzo[4,5]furo[3,2-e]isoquinoline]	9.8 mg/kg	> 135 mg/kg		ED50 [3, 4]: 10.1 mg/kg
CN1CC[C@]23c4cccc(O)c4O[C@H]2CCC[C@H]3C1 (relative stereo) [Example 3, 3-Methyl-2,3,4,4aα,5,6,7,7aα-octahydro-1H-benzo[4,5]furo[3,2-e]isoquinolin-9-ol]	3.5 mg/kg	> 135 mg/kg	0.27 mg/kg	
COc1cccc2c1O[C@H]1CCC[C@H]3CN(CC4CC4)CC[C@@]231 (relative stereo) [Example 4, 3-Cyclopropylmethyl-9-methoxy-2,3,4,4aα,5,6,7,7aα-octahydro-1H-benzo[4,5]furo[3,2-e]isoquinoline]	19.7 mg/kg	> 135 mg/kg		ED50 [3, 4]: 0.31 mg/kg
Oc1cccc2c1O[C@H]1CCC[C@H]3CN(CC4CC4)CC[C@@]231 (relative stereo) [Example 5, 3-Cyclopropylmethyl-2,3,4,4aα,5,6,7,7aα-octahydro-1H-benzo[4,5]furo[3,2-e]isoquinolin-9-ol]	0.75 mg/kg	> 81 mg/kg	0.006 mg/kg	analgesic potency compared with morphine ([1]; mouse analgesia data, relative to morphine): several times greater potency than morphine
Oc1cccc2c1O[C@H]1CCC[C@H]3CN(CC4CCC4)CC[C@@]231 (relative stereo) [Example 7, 3-Cyclobutylmethyl-2,3,4,4aα,5,6,7,7aα-octahydro-1H-benzo[4,5]furo[3,2-e]isoquinoline-9-ol]	81 mg/kg	> 81 mg/kg		ED50 [3, 4]: 0.64 mg/kg
CC(=O)Oc1cccc2c1O[C@H]1CCC[C@H]3CN(CC4CC4)CC[C@@]231 (relative stereo) [Example 9, 3-Cyclopropylmethyl-9-acetoxy-2,3,4,4aα,5,6,7,7aα-octahydro-1H-benzo[4,5]furo[3,2-e]isoquinoline]	0.75 mg/kg	> 135 mg/kg	0.005 mg/kg	
COc1cccc2c1O[C@H]1CCC[C@H]3CN(Cc4ccccc4)CC[C@@]231 (relative stereo) [Example 10, 3-Benzyl-9-methoxy-2,3,4,4aα,5,6,7,7aα-octahydro-1H-benzo[4,5]furo[3,2-e]isoquinoline]	48 mg/kg	> 81 mg/kg	48 mg/kg	narcotic antagonism, in words ([3]; mouse anti-Straub tail test): pure narcotic antagonists
Oc1cccc2c1O[C@H]1CCC[C@H]3CN(Cc4ccccc4)CC[C@@]231 (relative stereo) [Example 11, 3-Benzyl-2,3,4,4aα,5,6,7,7aα-octahydro-1H-benzo[4,5]furo[3,2-e]isoquinoline-9-ol]	29 mg/kg	> 81 mg/kg	1.2 mg/kg	
COc1cccc2c1O[C@H]1CCC[C@H]3CNCC[C@@]231 (relative stereo) [Example 12, 9-Methoxy-2,3,4,4aα,5,6,7,7aα-octahydro-1H-benzo[4,5]furo[3,2-e]isoquinoline]	47 mg/kg	> 81 mg/kg		
Oc1cccc2c1O[C@H]1CCC[C@H]3CNCC[C@@]231 (relative stereo) [Example 13, 2,3,4,4aα,5,6,7,7aα-octahydro-1H-benzo[4,5]furo[3,2-e]isoquinol in-9-ol]	15 mg/kg	> 135 mg/kg	> 27 mg/kg	
CCN1CC[C@]23c4cccc(OC)c4O[C@H]2CCC[C@H]3C1 (relative stereo) [Example 14a, 3-ethyl-9-methoxy-2,3,4,4aα,5,6,7,7aα-octahydro-1H-benzo[4,5]furo[3,2-e] isoquinoline]	63 mg/kg	> 135 mg/kg	0.71 mg/kg	
CCN1CC[C@]23c4cccc(O)c4O[C@H]2CCC[C@H]3C1 (relative stereo) [Example 14b, 3-Ethyl-2,3,4,4aα,5,6,7,7aα-octahydro-1H-benzo[4,5]furo[3,2-e]isoquinolin-9-ol]	135 mg/kg	> 135 mg/kg	0.028 mg/kg	
C=CCN1CC[C@]23c4cccc(OC)c4O[C@H]2CCC[C@H]3C1 (relative stereo) [Example 15, 3-Allyl-9-methoxy-2,3,4,4aα,5,6,7,7aα-octahydro-1H-benzo[4,5]furo[3,2-e]isoquinoline]	62 mg/kg	> 135 mg/kg	0.3 mg/kg	
C=CCN1CC[C@]23c4cccc(O)c4O[C@H]2CCC[C@H]3C1 (relative stereo) [Example 16, 3-Allyl-2,3,4,4aα,5,6,7,7aα-octahydro-1H-benzo[4,5]furo[3,2-e]isoquinolin-9-ol]	81 mg/kg	> 81 mg/kg	0.03 mg/kg	
COc1cccc2c1O[C@H]1CCC[C@H]3CN(CC=C(C)C)CC[C@@]231 (relative stereo) [Example 17, 3-(3'-Methyl-2'-butenyl)-9-methoxy-2,3,4,4aα,5,6,7,7aα-octahydro-1H-benzo[4,5]furo[3,2-e]isoquinoline]	18.7 mg/kg	> 135 mg/kg	7.8 mg/kg	
CC(C)=CCN1CC[C@]23c4cccc(O)c4O[C@H]2CCC[C@H]3C1 (relative stereo) [Example 18, 3-(3'-methyl-2'-butenyl)-2,3,4,4aα,5,6,7,7aα-octahydro-1H-benzo[4,5]furo[3,2-e]isoquinolin-9-ol]	10.8 mg/kg	32 mg/kg	> 27 mg/kg	

SMILES	ED50 [1]	ED50 [2]	ED50 [3, 5]	also measured
CC(C)CCN1CC[C@]23c4cccc(O)c4O[C@H]2CCC[C@H]3C1 (relative stereo) [Example 19, 3-(3'-Methylbutyl)-2,3,4,4aα,5,6,7,7aα-octahydro-1H-benzo[4,5]furo[3,2-e]isoquinolin-9-ol]	33 mg/kg	> 135 mg/kg	0.64 mg/kg	
COc1cccc2c1O[C@H]1CCC[C@H]3CN(CC#N)CC[C@@]231 (relative stereo) [Example 20, 9-Methoxy-2,3,4,4aα,5,6,7,7aα-octahydro-1H-benzo[4,5]furo[3,2-e]isoquinoline-3-acetonitrile]	26 mg/kg	> 135 mg/kg	> 27 mg/kg	
CCCN1CC[C@]23c4cccc(OC)c4O[C@H]2CCC[C@H]3C1 (relative stereo) [Example 21]	78 mg/kg	> 135 mg/kg	0.08 mg/kg	
CCCN1CC[C@]23c4cccc(O)c4O[C@H]2CCC[C@H]3C1 (relative stereo) [Example 22]	112 mg/kg	> 135 mg/kg	0.008 mg/kg	
CCCCN1CC[C@]23c4cccc(OC)c4O[C@H]2CCC[C@H]3C1 (relative stereo) [Example 23]	33 mg/kg	> 135 mg/kg	0.82 mg/kg	
CN1CCC23c4cccc(O)c4OC2CCCC3C1 (single isomer, unassigned; isomer 3) [Example 3 (+)isomer, 3-Methyl-2,3,4,4aα,5,6,7,7aα-octahydro-1H-benzo[4,5]furo[3,2-e]isoquinolin-9-ol]				EFFECT ED50 subcutaneous(s.c.) Anti-Straub Tail ([3]; s.c., listed as 3 (+)isomer): 3.3
CN1CCC23c4cccc(O)c4OC2CCCC3C1 (single isomer, unassigned; isomer 3) [Example 3 (-)isomer, 3-Methyl-2,3,4,4aα,5,6,7,7aα-octahydro-1H-benzo[4,5]furo[3,2-e]isoquinolin-9-ol]		> 135 mg/kg		EFFECT ED50 subcutaneous(s.c.) Anti-Straub Tail ([3]; s.c., listed as 3 (-)isomer): 0.14
CCCCN1CCC23c4cccc(O)c4OC2CCCC3C1 (centres unmarked) [Example 24]	23 mg/kg	> 135 mg/kg	0.032 mg/kg	
CCCCCN1CCC23c4cccc(OC)c4OC2CCCC3C1 (centres unmarked) [Example 25]	6.2 mg/kg	57 mg/kg	> 27 mg/kg	
CCCCCN1CCC23c4cccc(O)c4OC2CCCC3C1 (centres unmarked) [Example 26]	5.3 mg/kg	37 mg/kg	> 27 mg/kg	
CCCCCCN1CCC23c4cccc(O)c4OC2CCCC3C1 (centres unmarked) [Example 28]	2.9 mg/kg	26 mg/kg		
CCCCCCCCN1CCC23c4cccc(OC)c4OC2CCCC3C1 (centres unmarked) [Example 29]	7.2 mg/kg		> 27 mg/kg	
CCCCCCCCN1CCC23c4cccc(O)c4OC2CCCC3C1 (centres unmarked) [Example 30]	4.2 mg/kg	54 mg/kg		
COc1cccc2c1OC1CCCC3CN(CC4CCCCC4)CCC231 (centres unmarked) [Example 33]	135 mg/kg	> 135 mg/kg		
COc1cccc2c1OC1CCCC3CN(CC4CCCO4)CCC231 (centres unmarked) [Example 39]	16.7 mg/kg		4.7 mg/kg	
Oc1cccc2c1OC1CCCC3CN(CC4CCCO4)CCC231 (centres unmarked) [Example 40]	11.8 mg/kg		0.19 mg/kg	
Oc1cccc2c1OC1CCCC3CN(Cc4cccs4)CCC231 (centres unmarked) [Example 42]	108 mg/kg	> 135 mg/kg		

Reference: US4243668A, “Octahydro-1H-benzo[4,5]furo[3,2-e]-isoquinoline analgesic and narcotic antagonistic compounds” (priority 1979, dated 1981)
